# From patent publication US7341859B2, “ADH from Rhodococcus erythropolis” (Degussa AG, priority 2002, dated 2008)
# Like-named read-outs stand apart in the source and are kept apart here.
# B1: RE-ADH (Rhodococcus erythropolis) (protein)
# chain: MKAIQYTRIGAEPELTEIPKPEPGPGEVLLEVTAAGVCHSDDFIMSLPEEQYTYGLPLTLGHEGAGKVAAVGEGVEGLDIGTNVVVYGPWGCGNCWHCSQGLENYCSRAQELGINPPGLGAPGALAEFMIVDSPRHLVPIGDLDPVKTVPLTDAGLTPYHAIKRSLPKLRGGSYAVVIGTGGLGHVAIQLLRHLSAATVIALDVSADKLELATKVGAHEVVLSDKDAAENVRKITGSQGAALVLDFVGYQPTIDTAMAVAGVGSDVTIVGIGDGQAHAKVGFFQSPYEASVTVPYWGARNELIELIDLAHAGIFDIAVETFSLDNGAEAYRRLAAGTLSGRAVVVPGL
# Columns and labels:
# [1] = system: alcohol dehydrogenase from R. erythropolis; assay: Preparative reduction of keto-compounds with ADH and formate dehydrogenase regeneration, chiral GC; type: biochemical, Rhodococcus erythropolis; settings: for Conversion after 10 min [%]: 10 mM keto-compound, 0.5 U/ml alcohol dehydrogenase; for ee [%] of the product: enzymatic reduction, chiral GC
# Description: The product is analysed by means of gas chromatography, wherein the stationary phase in the GC column is capable of separating enantiomeric alcohols so that information on the ee values of the enzymatically prepared product can be obtained.
# Such a mixture for reduction contains: • 10 mM keto-compound • 0.5 mM NAD • 100 mM Na formate • 1 U/ml formate dehydrogenase
# At the times 0, 5 min and 10 min, samples are taken (100 μl), extracted with 100 μl of chloroform and the chloroform phase is analysed using gas chromatography.
# Column: CP-Chirasil-DEX CB length: 25 m, diameter: 25 μm (Chrompack). Temperature programme: 5 min at 60° C., then 5° C./min up to 190° C. (for hexanone/hexanol: 30 min at 60° C., then 10° C./min to 195° C.). Column flow 1.3 ml/min; gas:helium
# p-Cl-acetophenone, acetophenone, ethyl 2-oxobutyrate, 2-hexanone and 2-heptanone.
# ADH from R. erythropolis = assay: Enantioselective oxidation of (R,S)-phenylethanol with ADH and NADH oxidase, chiral GC; type: biochemical, Rhodococcus erythropolis; settings: after 2 h; for oxidation of the enantiomer: 10 mM (R,S)-phenylethanol
# Description: By means of enantioselective oxidation of an alcohol, an enantiomer-enriched or enantiomer-pure alcohol, for example, can be obtained from a racemate.
# Samples were taken after 0, 1 and 2 h and separated by gas chromatography (column: CP-Chirasil-DEX CB length: 25 m, diameter: 25 μm (Chrompack). Temperature programme: 5 min at 60° C., then 5° C./min up to 190° C.; column flow rate 1.3 ml/min; gas: helium. In this case, both the acetophenone peak (product; retention time=16.9 min), and also the enantiomers of phenylethanol (reactants; retention times R-phenylethanol=20.8 min and S-phenylethanol=21.1 min) were recorded.
# [2] = system: aldehyde reductase from Corynebacterium sp.; settings: cited from earlier work; for relative activity: phenylacetaldehyde = 100%
# [3] = system: alcohol dehydrogenase from R. erythropolis (RE-ADH, new ADH expr. in E. coli); assay: Relative/specific activity of substrates with the new ADH from R. erythropolis (photometric NADH test); type: biochemical, Rhodococcus erythropolis; settings: for Relative activity [%]: relative to acetophenone = 100
# Description: In this case, as is normal, the measured activity for one compound is set at 100% and the activity/activities of the other compound(s) is determined in relation thereto. From the relative activities when compared with other substrates, it can then be recognised whether such another substrate is accepted to a greater or lesser extent.
# A first purification can be achieved by anion exchange chromatography (MonoQ-Material, Pharmacia) (mobile buffer: 50 mM TEA buffer, pH 7.0; elution with a NaCl gradient of 0-1 M).
# For the activity test, the cells were harvested (15 min centrifuging at 14000 rpm, 4° C.) and degraded after resuspension with 100 mM KPi buffer, pH 6.0 (1.5 ml of buffer per 1 g of cells). For the purposes of degradation, the suspension was treated with ultrasound (2×30 sec. power 100%, pulse 50), then the cell broth was centrifuged. The supernatant liquid is the soluble crude extract, the sediment is the insoluble fraction.
# For a comparison using relative activities, the activity of the two enzymes was given with respect to phenylacetaldehyde=100%.
# In this case, the relative activity is given with respect to the activity measured for acetophenone.
# [4] = system: ADH in accordance with J. Peters, Dissertation; settings: cited from earlier work
# [5] = system: ADH in accordance with DE 4209022; settings: cited from earlier work
# [6] = system: whole cells of R. erythropolis; assay: Continuous conversion with alginate-immobilised whole cells in a column; type: cell-based, Rhodococcus erythropolis; settings: 1.5 mM, 2 ml per h
# Description: Our results with whole cells of R. erythropolis indicate that this strain contains several ADHs, including at least one with opposite enantioselectivity. […] However, this high ee value is retained for only about 10 h (about 3 volume changes), then the ee value drops drastically while the conversion remains at the same high level.
# CC(=O)c1ccc(Cl)cc1 = assay: purified protein, by the assay type; settings: other: reduction reaction
# C[C@H](O)c1ccc(Cl)cc1 = assay: purified protein, by the assay type; settings: other: oxidation reaction
# [7] = substrate: NC(=O)c1ccc[n+]([C@@H]2O[C@H](COP(=O)([O-])OP(=O)(O)OC[C@H]3O[C@@H](n4cnc5c(N)ncnc54)[C@H](O)[C@@H]3O)[C@@H](O)[C@H]2O)c1; assay: purified protein, by the assay type; settings: other: oxidation reaction
# [8] = relative to 2-heptanone = 100%, listed as 2-decanone
# [9] = relative to 2-heptanone = 100%, listed as drawing 11
# [10] = relative to methyl acetoacetate = 100%
# [11] = relative to 2-heptanone = 100%, listed as 2-heptanone
# [12] = relative to 2-heptanone = 100%, listed as drawing 10
# [13] = relative to 2-heptanone = 100%, listed as drawing 12
# [14] = relative to 2-heptanone = 100%, listed as phenoxyacetone
# [15] = relative to p-methylacetophenone = 100%, listed as drawing 3
# [16] = relative to p-methylacetophenone = 100%, listed as p-chloroacetophenone
# [17] = relative to methyl acetoacetate = 100%, listed as drawing 9
# [18] = relative to methyl acetoacetate = 100%, listed as p-chloroacetophenone
# [19] = relative to p-fluoroacetophenone = 100%, listed as drawing 5
# [20] = relative to p-fluoroacetophenone = 100%, listed as p-methoxyacetophenone
# [21] = relative to p-methylacetophenone = 100%
molecule,measurement,setting,value
CCCCC(C)=O [2-hexanone],Conversion after 10 min [%],[1],>95%
same,ee [%] of the product,[1],>99%
C[C@@H](O)c1ccccc1 [(R)-phenylethanol],ee value of the remaining enantiomer,ADH from R. erythropolis,> 99%
same,oxidation of the enantiomer,ADH from R. erythropolis,remained untouched
C[C@H](O)c1ccccc1 [(S)-phenylethanol],oxidation of the enantiomer,ADH from R. erythropolis,fully oxidised
CC(=O)c1ccccc1 [Acetophenone],activity for acetophenone reduction,[2]; homogeneous enzyme,22.4 U/mg
same,relative activity,[2],35%
same,activity of Rhodococcus ADH compared with the Corynebacterium enzyme,"[3]; highly purified enzymes, towards acetophenone",about 15 times
same,activity for acetophenone reduction,[3]; homogeneous enzyme,348 U/mg
same,relative activity,[3]; phenylacetaldehyde = 100%,87%
same,Relative activity [%],[3],100%
same,Conversion after 10 min [%],[1],>95%
same,ee [%] of the product,[1],>99%
"CCCCCCCCC(C)=O [Decan-2-one, 2-decanone]",relative activity,[4]; [8],79%
same,relative activity,[4]; [9],79%
same,relative activity,[3]; [8],76%
same,relative activity,[3]; [9],76%
same,Relative activity [%],[3],2521%
"CCOC(=O)C(=O)CC [Ethyl 2-oxobutyrate, ethyl 2-oxobutyrate]",Conversion after 10 min [%],[1],>95%
same,ee [%] of the product,[1],>99%
CCOC(=O)CC(C)=O [Ethyl acetoacetate],relative activity,[4]; [10],250%
same,relative activity,"[4]; relative to methyl acetoacetate = 100%, listed as β-ketoethyl esters",250%
same,Relative activity [%],[3],1020%
same,relative activity,[3]; [10],773%
same,relative activity,"[3]; relative to methyl acetoacetate = 100%, listed as β-ketoethyl ester",773%
"CCCCCC(C)=O [Heptan-2-one, 2-heptanone]",relative activity,[4]; [11],100%
same,relative activity,[4]; [12],100%
same,relative activity,[3]; [11],100%
same,relative activity,[3]; [12],100%
same,Relative activity [%],[3],3328%
same,Conversion after 10 min [%],[1],>95%
same,ee [%] of the product,[1],>99%
"COC(=O)CC(C)=O [Methyl acetoacetate, methyl acetoacetate]",relative activity,[4]; [10],100%
same,Relative activity [%],[3],134%
same,relative activity,[3]; [10],100%
same,relative activity,"[3]; relative to methyl acetoacetate = 100%, listed as methyl ester",100%
"CC(=O)COc1ccccc1 [Phenoxyacetone, phenoxyacetone]",relative activity,[4]; [13],71%
same,relative activity,[4]; [14],71%
same,relative activity,[3]; [13],126%
same,relative activity,[3]; [14],126%
same,Relative activity [%],[3],4180%
O=CCc1ccccc1 [Phenylacetaldehyde],relative activity,[2],100%
same,relative activity,[3]; phenylacetaldehyde = 100%,100%
CCCCC=O [Valeraldehyde],relative activity,[2],181%
same,relative activity,[3]; phenylacetaldehyde = 100%,433%
CC(=O)c1cccc(Cl)c1 [m-Cl-acetophenone],Relative activity [%],[3],2384%
"CC(=O)c1ccc(Cl)cc1 [p-Cl-acetophenone, p-chloroacetophenone]",relative activity,[2],338%
same,relative activity,[5]; [15],81%
same,relative activity,[5]; [16],81%
same,ee of (S)-p-chloro-2-phenylethanol obtained,[6]; after 25 h (about 9 volume changes),70 % ee
same,ee of the alcohol obtained,[6]; after 50 h (about 18 volume changes),about 5 % ee
same,relative activity,[4]; [17],100%
same,relative activity,[4]; [18],100%
same,relative activity,[3]; phenylacetaldehyde = 100%,288%
same,Relative activity [%],[3],1198%
same,relative activity,[3]; [17],909%
same,relative activity,[3]; [18],909%
same,relative activity,[3]; [15],189%
same,relative activity,[3]; [16],189%
same,Conversion after 10 min [%],[1],>95%
same,enantiomeric form of the product of conversion by the new alcohol dehydrogenase,[1]; also when used several times or at higher concentrations,enantiomerically pure
same,ee [%] of the product,[1],>99%
"CC(=O)c1ccc(F)cc1 [p-F-acetophenone, p-fluoroacetophenone]",relative activity,"[5]; relative to p-fluoroacetophenone = 100%, listed as drawing 6",100%
same,relative activity,"[5]; relative to p-fluoroacetophenone = 100%, listed as p-fluoroacetophenone",100%
same,Relative activity [%],[3],194%
same,relative activity,[3]; relative to p-fluoroacetophenone = 100%,100%
"COc1ccc(C(C)=O)cc1 [p-methoxy-acetophenone, p-methoxyacetophenone]",relative activity,[5]; [19],90%
same,relative activity,[5]; [20],90%
same,Relative activity [%],[3],232%
same,relative activity,[3]; [19],195%
same,relative activity,[3]; [20],195%
"CC(=O)c1ccc(C)cc1 [p-methyl-acetophenone, p-methylacetophenone]",relative activity,[5]; [21],100%
same,Relative activity [%],[3],640%
same,relative activity,[3]; [21],100%
RE-ADH (Rhodococcus erythropolis),Km,CC(=O)c1ccc(Cl)cc1,500 µM
same,Km,C[C@H](O)c1ccc(Cl)cc1,280 µM
B1,Km,[7],82 µM
